Data on 27 compounds can be found in PubChem BioAssay (NCI).

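Method: 48-hour compound exposure of cells in 96-well plates, five concentrations, linear interpolation of endpoints. TGI denotes the concentration required for complete inhibition of growth.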

Among the test systems are K-562 leukemia; HCC-2998 colon; OVCAR-8 ovarian; HOP-92 NSCLC; MALME-3M melanoma; SW-620 colon; M14 melanoma.
Holding throughout (assay): NCI-60 cell line screen, 48 h

As for `O=C1CCCC(=O)N1CCc1c[nH]c2ccccc12`, the TGI with K-562 leukemia, in the experiment with HCC-2998 colon, with OVCAR-8 ovarian, in the experiment with HOP-92 NSCLC, with MALME-3M melanoma and in the experiment with SW-620 colon was above 100 µM throughout. The compound also gave a TGI in the experiment on M14 melanoma above 100 µM.
Take `Cc1ccc([N+](=O)[O-])cc1NC(=O)c1cccc([N+](=O)[O-])c1O`: the TGI was 96.6 µM with K-562 leukemia; above 100 µM in the experiment on OVCAR-8 ovarian; 62.7 µM with MALME-3M melanoma; above 100 µM with SW-620 colon; 56.7 µM with M14 melanoma.
In the case of `Cc1cc(NS(=O)(=O)c2ccc(NC(=O)c3ccc(Cl)c4c(Nc5ccc(S(=O)(=O)N=C(N)N)cc5)c5ccccc5nc34)cc2)no1`, the TGI in the experiment on K-562 leukemia is above 100 µM; with HCC-2998 colon it was 41.6 µM; with OVCAR-8 ovarian, above 100 µM; in the experiment on MALME-3M melanoma it was above 100 µM; with M14 melanoma it was above 100 µM.
`O=C1C2C=CC(C2)C(c2ccc(O)cc2)N1O` (stereo not drawn): the TGI in the experiment with K-562 leukemia, in the experiment with HCC-2998 colon, with OVCAR-8 ovarian, with HOP-92 NSCLC, with MALME-3M melanoma and with SW-620 colon was above 100 µM each time. In the experiment with M14 melanoma, this compound showed a TGI above 100 µM.
For the compound `COC(=O)NN=C1C(C)(C)C(=O)C1(C)C`, the TGI with K-562 leukemia, with HCC-2998 colon, with OVCAR-8 ovarian, in the experiment with HOP-92 NSCLC, with MALME-3M melanoma and in the experiment on SW-620 colon was above 100 µM each time. In addition, the TGI with M14 melanoma is above 100 µM.
In the case of `COC(=O)[C@]12CC=C3O[C@@H]4OC5(CCCCC5)O[C@@H]4C3[C@@H]1C(=O)CCC2=O` (stereo partly drawn), the TGI in the experiment with K-562 leukemia, in the experiment on HCC-2998 colon, in the experiment on OVCAR-8 ovarian, in the experiment on HOP-92 NSCLC, with MALME-3M melanoma and in the experiment with SW-620 colon was above 100 µM in each case. Besides, the TGI in the experiment with M14 melanoma is above 100 µM.
On to `O=C(O)CCSC(=O)Nc1ccccc1F`, for which the TGI with K-562 leukemia, in the experiment with HCC-2998 colon, with SW-620 colon and with M14 melanoma was above 100 µM in each case.
Take `O=C(c1ccccc1)[C@@H]1C[C@H](Sc2ccccc2)c2cc(Cl)ccc2N1`: the TGI is 74.3 µM in the experiment on K-562 leukemia; 51.8 µM with HCC-2998 colon; 66.8 µM with OVCAR-8 ovarian; above 100 µM with MALME-3M melanoma; 59.8 µM in the experiment on SW-620 colon; 74.5 µM in the experiment with M14 melanoma.
`COc1ccc(CC(=O)NCCc2ccc(OC)c(OC)c2)cc1Br`: the TGI in the experiment with K-562 leukemia, with HCC-2998 colon, in the experiment with OVCAR-8 ovarian, in the experiment with HOP-92 NSCLC, with MALME-3M melanoma and in the experiment on SW-620 colon was above 100 µM throughout.
Turning to `COc1ccc(S(=O)(=O)N/N=C/c2cc(I)cc([N+](=O)[O-])c2O)cc1OC`, the TGI is above 100 µM in the experiment with K-562 leukemia; above 100 µM in the experiment on HCC-2998 colon; above 100 µM with OVCAR-8 ovarian; 46 µM with HOP-92 NSCLC; 83.9 µM with MALME-3M melanoma; above 100 µM with SW-620 colon. In addition, the TGI in the experiment on M14 melanoma is above 100 µM.
As to `Cc1ccc(NC(=O)C(=O)CC(=O)c2c(C)n([O-])c3ccccc3[n+]2=O)cc1`, the TGI in the experiment on K-562 leukemia was 56.4 µM; with HCC-2998 colon it was above 100 µM; in the experiment with OVCAR-8 ovarian, 55.8 µM; in the experiment on HOP-92 NSCLC, above 100 µM; in the experiment on MALME-3M melanoma it was 65.2 µM; with SW-620 colon, above 100 µM. The compound also gave a TGI in the experiment with M14 melanoma of 60.1 µM.
On to `CN(C)C=[N+]=[N-]`, for which the TGI in the experiment with K-562 leukemia, in the experiment with HCC-2998 colon, with OVCAR-8 ovarian, in the experiment on HOP-92 NSCLC, in the experiment on MALME-3M melanoma and in the experiment with SW-620 colon was above 100 µM in each case. Further, the TGI in the experiment with M14 melanoma is above 100 µM.
As to `c1ccc2cc3[s+]snc3cc2c1`, the TGI in the experiment with K-562 leukemia, in the experiment on HCC-2998 colon, in the experiment with OVCAR-8 ovarian, in the experiment with MALME-3M melanoma, in the experiment with SW-620 colon and with M14 melanoma was above 100 µM each time.
Regarding `CCOC(=O)/C(=C\c1cccs1)P(=O)(OCC)OCC`, the TGI in the experiment on K-562 leukemia was above 100 µM; in the experiment on HCC-2998 colon, 33.1 µM; in the experiment with OVCAR-8 ovarian, 77.2 µM; in the experiment on HOP-92 NSCLC it was 84.5 µM; in the experiment with MALME-3M melanoma, 52.6 µM; with SW-620 colon, 36.6 µM. In the experiment with M14 melanoma, the TGI stood at 33.2 µM.
For the compound `CN1CC[C@]2(C)c3cc(O)ccc3CC3CCCC1C32C` (stereo partly drawn), the TGI in the experiment with K-562 leukemia, in the experiment with HCC-2998 colon, with OVCAR-8 ovarian, in the experiment with HOP-92 NSCLC, in the experiment on MALME-3M melanoma and in the experiment on SW-620 colon was above 100 µM in each case. Further, in the experiment on M14 melanoma, the TGI is above 100 µM.
Regarding `COc1ccccc1C1c2cc3c(cc2OC(O)(CO)C1C(=O)O)OCO3` (stereo not drawn) (tested in a mixture with another compound), the TGI in the experiment with K-562 leukemia, in the experiment on HCC-2998 colon, with OVCAR-8 ovarian, with HOP-92 NSCLC, with MALME-3M melanoma and in the experiment on SW-620 colon was above 100 µM throughout. This compound also had a TGI in the experiment with M14 melanoma above 100 µM.
Take `C[C@]12CCC(=O)C(O)=C1CC[C@@H]1C2CC[C@]2(C)Nc3c(cnn3-c3ccccc3)CC12` (stereo partly drawn): the TGI in the experiment with K-562 leukemia, with HCC-2998 colon, with OVCAR-8 ovarian, with MALME-3M melanoma, in the experiment with SW-620 colon and with M14 melanoma was above 100 µM in each case.
`O=c1nc(NC(c2ccccc2)(c2ccccc2)c2ccccc2)ccn1CCNCCn1ccc(NC(c2ccccc2)(c2ccccc2)c2ccccc2)nc1=O`: the TGI in the experiment on K-562 leukemia is above 100 µM; in the experiment on HCC-2998 colon it was 17.1 µM; with OVCAR-8 ovarian, 38.7 µM; in the experiment on HOP-92 NSCLC, 24.4 µM; in the experiment on MALME-3M melanoma, 29.3 µM; with SW-620 colon it was 31.9 µM. This compound displayed a TGI in the experiment on M14 melanoma of 69.3 µM.
Regarding `O=C(O)CNS(=O)(=O)c1ccc(NC(=O)CI)cc1`, the TGI in the experiment with K-562 leukemia was 62.1 µM; in the experiment on HCC-2998 colon, above 100 µM; in the experiment on OVCAR-8 ovarian, 48.6 µM; in the experiment with HOP-92 NSCLC, 36.4 µM; with MALME-3M melanoma, 39.6 µM; in the experiment on SW-620 colon, 39.6 µM. Besides, the TGI in the experiment on M14 melanoma was found to be 44.3 µM.
As for `COc1cc(C(O)C(=O)c2nc3ccc([N+](=O)[O-])cc3[nH]c2=O)ccc1O` (stereo not drawn), the TGI in the experiment on K-562 leukemia, in the experiment on HCC-2998 colon, with OVCAR-8 ovarian, in the experiment with MALME-3M melanoma, with SW-620 colon and in the experiment on M14 melanoma was above 100 µM each time.
Regarding `O=C(O)CCC(NC(=O)c1ccccc1)C(=O)O` (stereo not drawn), the TGI in the experiment on K-562 leukemia, in the experiment with HCC-2998 colon, in the experiment on OVCAR-8 ovarian, in the experiment on HOP-92 NSCLC, in the experiment on MALME-3M melanoma and in the experiment with SW-620 colon was above 100 µM each time. In the experiment on M14 melanoma, the TGI is above 100 µM.
Regarding `C[N+]1(C)C/C(=C\c2ccccc2)C(=O)/C(=C/c2ccccc2)C1`, the TGI with K-562 leukemia, in the experiment with HCC-2998 colon, with OVCAR-8 ovarian, in the experiment with HOP-92 NSCLC, with MALME-3M melanoma and with M14 melanoma was above 100 µM throughout.
For `Cc1[nH]c(=O)n2c(C)nnc2c1C(=O)Nc1cc(Cl)cc(Cl)c1`, the TGI with K-562 leukemia was above 100 µM; in the experiment on OVCAR-8 ovarian, above 100 µM; in the experiment on HOP-92 NSCLC, 64 µM; in the experiment with MALME-3M melanoma it was above 100 µM; with SW-620 colon it was above 100 µM; with M14 melanoma, above 100 µM.
For `C=C1C(=O)OC2C=C(CCC(C)=O)C(C)C(OC(C)=O)CC12` (stereo not drawn), the TGI came out at 44 µM in the experiment on K-562 leukemia; 21.5 µM in the experiment on HCC-2998 colon; 36 µM in the experiment with OVCAR-8 ovarian; 12.9 µM in the experiment on HOP-92 NSCLC; 25.2 µM with MALME-3M melanoma; 1.22 µM in the experiment on SW-620 colon. This compound also returned a TGI with M14 melanoma of 20.7 µM.
Consider `Cc1c(C(=O)CC(=O)C(=O)Nc2ccc(Cl)cc2)[n+](=O)c2ccccc2n1[O-]`, for which the TGI with K-562 leukemia, in the experiment with OVCAR-8 ovarian, in the experiment on HOP-92 NSCLC, in the experiment on MALME-3M melanoma, with SW-620 colon and in the experiment on M14 melanoma was above 100 µM throughout.
`CC(C)(CN1CCCCC1)C(=O)/C=C/c1ccc(Cl)cc1`: the TGI with K-562 leukemia was 12.3 µM; with HCC-2998 colon, 26.3 µM; with OVCAR-8 ovarian, 5.51 µM; in the experiment with HOP-92 NSCLC, 4.64 µM; in the experiment with MALME-3M melanoma, 18.9 µM; in the experiment with SW-620 colon it was 10.8 µM. In the experiment with M14 melanoma, this compound registered a TGI of 9.79 µM.
As for `Fc1ccccc1C1SCc2nc3ccccc3n21` (stereo not drawn), the TGI with K-562 leukemia is above 100 µM; with HCC-2998 colon, above 100 µM; in the experiment with OVCAR-8 ovarian it was above 100 µM; in the experiment with HOP-92 NSCLC it was 72.7 µM; in the experiment with MALME-3M melanoma, above 100 µM; with SW-620 colon, above 100 µM.
